# Patent publication US12448369B2 (Edgewise Therapeutics, Inc., priority 2023, dated 2025)
# Tests used:
# [1] = test system: Rabbit Psoas myofibrils (skeletal myosin ATPase); assay: Myofibril ATPase assay, rabbit psoas (skeletal) myofibrils; assay type: biochemical; details: rabbit psoas myofibrils
# How it was run: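 Values derive from concentration–response fits of NADH consumption rates at 340 nm, normalized to vehicle-only wells, as Y75 or Y125. Myofibril ATP turnover was linked to NADH via PK/LDH in Ca/EGTA-buffered PIPES, pH 7.0, and read over 75 min.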
# [2] = test system: Porcine atria myofibrils (atrial myosin ATPase); assay: Myofibril ATPase assay, porcine atria myofibrils; assay type: biochemical; details: porcine atria myofibrils
# How it was run: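 Atrial myofibril ATPase measured by NADH-coupled absorbance at 340 nm; vehicle-normalized slopes fitted to give Y75 or Y125 values.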
# [3] = target: T1, Porcine ventricle myofibrils (ventricular myosin ATPase) (Sus scrofa, UniProt P79293); assay: Myofibril ATPase assay, porcine ventricle myofibrils; assay type: biochemical, porcine (Yucatan minipigs); details: porcine ventricle myofibrils
# T1 construct: Myofibrils from porcine cardiac muscle was isolated from the left ventricle of Yucatan minipigs; tissue Exemplar Genetics; host or cells: left ventricle of Yucatan minipigs, myofibrils prepared in house
# How it was run: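 Read-out: A340 kinetic, NADH consumption coupled to ADP via PK-LDH, 75 min. Yucatan minipig LV myofibrils, pCa buffer (PIPES/CaCl2/EGTA, pH 7.0). Linear-regression slope (mAU/min), vehicle = 100%, 4PL fit; Y75 or Y125 reported.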
# [4] = Y75 value (75% activity relative to no compound)
# [5] = ‡ Y125 value, not a Y75 value (125% activity relative to no compound)
# T1 sequence (P79293 whole entry): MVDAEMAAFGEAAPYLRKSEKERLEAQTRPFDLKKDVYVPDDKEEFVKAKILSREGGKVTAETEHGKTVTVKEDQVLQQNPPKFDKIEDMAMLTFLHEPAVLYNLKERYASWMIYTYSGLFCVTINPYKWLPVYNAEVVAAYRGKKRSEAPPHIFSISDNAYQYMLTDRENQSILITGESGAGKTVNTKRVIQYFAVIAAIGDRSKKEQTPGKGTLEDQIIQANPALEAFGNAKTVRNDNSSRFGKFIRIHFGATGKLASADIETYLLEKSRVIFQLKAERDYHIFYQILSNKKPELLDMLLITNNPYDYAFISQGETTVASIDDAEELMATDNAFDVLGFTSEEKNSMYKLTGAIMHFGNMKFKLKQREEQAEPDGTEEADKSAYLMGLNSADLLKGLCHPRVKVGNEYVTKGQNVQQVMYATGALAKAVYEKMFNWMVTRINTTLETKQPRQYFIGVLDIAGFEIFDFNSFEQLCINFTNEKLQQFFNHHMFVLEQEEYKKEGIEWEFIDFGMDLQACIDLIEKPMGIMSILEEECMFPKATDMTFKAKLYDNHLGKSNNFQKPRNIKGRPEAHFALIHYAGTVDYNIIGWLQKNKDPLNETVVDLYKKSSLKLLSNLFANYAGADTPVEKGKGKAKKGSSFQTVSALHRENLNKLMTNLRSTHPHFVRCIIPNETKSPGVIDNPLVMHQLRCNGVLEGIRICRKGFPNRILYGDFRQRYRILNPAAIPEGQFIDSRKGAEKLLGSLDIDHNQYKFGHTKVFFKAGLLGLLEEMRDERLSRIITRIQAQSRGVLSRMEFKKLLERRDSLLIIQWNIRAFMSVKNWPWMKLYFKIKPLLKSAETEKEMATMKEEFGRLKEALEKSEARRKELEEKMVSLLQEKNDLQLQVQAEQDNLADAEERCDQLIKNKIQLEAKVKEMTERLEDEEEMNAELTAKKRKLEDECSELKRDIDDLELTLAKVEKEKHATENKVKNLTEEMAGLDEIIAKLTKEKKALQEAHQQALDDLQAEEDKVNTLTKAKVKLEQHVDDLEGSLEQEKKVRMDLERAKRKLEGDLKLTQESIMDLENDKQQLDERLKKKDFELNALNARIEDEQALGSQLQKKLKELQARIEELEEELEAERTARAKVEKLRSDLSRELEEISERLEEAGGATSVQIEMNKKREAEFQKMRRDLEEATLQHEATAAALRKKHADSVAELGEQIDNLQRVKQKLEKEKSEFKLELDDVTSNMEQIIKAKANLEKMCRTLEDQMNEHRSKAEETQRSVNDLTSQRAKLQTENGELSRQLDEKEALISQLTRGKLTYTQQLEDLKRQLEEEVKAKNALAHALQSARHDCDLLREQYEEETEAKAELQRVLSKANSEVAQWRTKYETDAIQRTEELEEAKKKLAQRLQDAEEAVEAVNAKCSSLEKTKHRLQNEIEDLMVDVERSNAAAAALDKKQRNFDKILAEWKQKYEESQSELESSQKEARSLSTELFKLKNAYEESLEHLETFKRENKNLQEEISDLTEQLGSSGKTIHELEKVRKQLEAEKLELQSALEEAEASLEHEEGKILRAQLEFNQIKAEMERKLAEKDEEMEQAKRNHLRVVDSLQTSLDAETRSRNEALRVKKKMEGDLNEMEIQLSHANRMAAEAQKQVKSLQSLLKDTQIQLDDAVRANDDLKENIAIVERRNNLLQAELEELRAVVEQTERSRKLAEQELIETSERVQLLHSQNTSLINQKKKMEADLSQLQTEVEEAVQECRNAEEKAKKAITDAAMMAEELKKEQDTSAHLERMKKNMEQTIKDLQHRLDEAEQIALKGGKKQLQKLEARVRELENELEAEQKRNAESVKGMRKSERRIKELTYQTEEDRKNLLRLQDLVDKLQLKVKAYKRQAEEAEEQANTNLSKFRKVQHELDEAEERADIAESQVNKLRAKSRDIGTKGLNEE
Structure (SMILES),Skeletal EC25 ([1]; Y75 value),"Atrial EC25 [2, 4]",Ventricular EC25 ([3]; Y75 value),Skeletal EC25 ([1]; Y75 value (no ‡ mark)),Atrial EC25 ([2]; Y75 value (no ‡ mark)),Ventricular EC25 ([3]; Y75 value (no ‡ mark)),"Skeletal EC25 [1, 5]","Ventricular EC25 [3, 5]"
Cc1c(CC(=O)N[C@@H](CO)c2ccc(F)cc2F)c(=O)[nH]c2ccnc(C#N)c12 [compound 230],0.02 µM,0.11 µM,0.96 µM,,,,,
"Cc1c(C(F)(F)C(=O)N[C@H](C)c2ncc(C#N)cn2)c(=O)[nH]c2cccc(C#N)c12 (single isomer, unassigned) [compound 4838]",,,,0.28 µM,0.92 µM,3.58 µM,,
"COc1ccccc1[C@@H](C)NC(=O)Cc1c(C)c2c(C)nccc2[nH]c1=O (single isomer, unassigned) [compound 318]",27.68 µM,100.00 µM,100.00 µM,,,,,
Cc1c(CC(=O)N[C@@H](C)c2cnc(C#N)nc2)c(=O)[nH]c2ccc(C(F)(F)F)nc12 [compound 458],10.51 µM,0.79 µM,100.00 µM,,,,,
C[C@H](NC(=O)C(F)(F)c1cc2cc(F)ccc2[nH]c1=O)c1ccc(F)cc1F [compound 119],,,,0.11 µM,0.26 µM,1.96 µM,,
"COc1ccc2[nH]c(=O)c(CC(=O)N[C@@H](C)c3ccc(F)cc3F)cc2c1C#N [Compound 81, (S)-2-(5-Cyano-6-methoxy-2-oxo-1,2-dihydroquinolin-3-yl)-N-(1-(2,4-difluorophenyl)ethyl) acetamide]",,,,51.89 µM,100.00 µM,100.00 µM,,
COC[C@H](NC(=O)Cc1c(C)c2c(C#N)nccc2[nH]c1=O)c1ccc(C#N)cc1F [compound 170],0.03 µM,0.08 µM,1.02 µM,,,,,
"Cc1c(CC(=O)N[C@H](C)c2ncc(F)cc2F)c(=O)[nH]c2ccc(O)nc12 (single isomer, unassigned) [compound 222]",100.00 µM,100.00 µM,100.00 µM,,,,,
"C[C@H](NC(=O)[C@H](C)c1cc2c(F)nccc2[nH]c1=O)c1ccc(F)cc1F (single isomer, unassigned) [compound 368]",0.43 µM,1.66 µM,43.64 µM,,,,,
"N#Cc1cnc2c(c1)OC[C@@H]2NC(=O)Cc1cc2c(F)c(F)ccc2[nH]c1=O (single isomer, unassigned) [compound 14]",,,,0.07 µM,0.21 µM,0.34 µM,,
Cc1c(CC(=O)N[C@@H]2CCc3cc(C#N)cnc32)c(=O)[nH]c2ccc(F)cc12 [compound 1092],,,,0.36 µM,1.13 µM,2.41 µM,,
"Cc1nccc2[nH]c(=O)c(CC(=O)N[C@H]3c4c(F)cc(F)cc4OC3(C)C)c(C)c12 (single isomer, unassigned) [compound 189]",0.87 µM,1.22 µM,13.14 µM,,,,,
Cc1nc(C#N)cnc1[C@@H](C)NC(=O)Cc1c(C)c2c(C)nccc2[nH]c1=O [compound 491],7.59 µM,1.57 µM,11.59 µM,,,,,
"Cc1c(C(F)(F)C(=O)N[C@H](CO)c2ncc(C#N)cc2F)c(=O)[nH]c2ccnc(C#N)c12 (single isomer, unassigned) [compound 3502]",0.08 µM,0.15 µM,0.31 µM,,,,,
"Cc1c(CC(=O)N[C@@H](C)c2ncc(C#N)cc2F)c(=O)[nH]c2ccc(Cl)cc12 (single isomer, unassigned) [compound 2050]",,,,0.04 µM,0.09 µM,0.18 µM,,
"CC[C@H](NC(=O)Cc1c(C)c2c(C)c(F)ccc2[nH]c1=O)c1ncc(C#N)cn1 (single isomer, unassigned) [compound 4834]",,,,0.15 µM,0.49 µM,0.64 µM,,

Structure (SMILES),Skeletal EC25 ([1]; Y75 value),"Atrial EC25 [2, 4]",Ventricular EC25 ([3]; Y75 value),Skeletal EC25 ([1]; Y75 value (no ‡ mark)),Atrial EC25 ([2]; Y75 value (no ‡ mark)),Ventricular EC25 ([3]; Y75 value (no ‡ mark)),"Skeletal EC25 [1, 5]","Ventricular EC25 [3, 5]"
"Cc1c(C2(C(=O)N[C@@H](C)c3nccc(C#N)n3)CC2)c(=O)[nH]c2ccc(F)c(F)c12 (single isomer, unassigned) [compound 2510]",,,,,7.78 µM,,85.63‡ μM,77.57‡ μM
"C[C@H](NC(=O)[C@@H](C)c1cc2nc(C#N)ccc2[nH]c1=O)c1ccc(F)cc1F (single isomer, unassigned) [compound 258]",100.00 µM,100.00 µM,63.55 µM,,,,,
CC(C(=O)N[C@@H](C)c1ccc(F)cc1F)c1cc2c(I)nccc2[nH]c1=O (stereo partly drawn) [compound 362],0.40 µM,9.38 µM,100.00 µM,,,,,
CC(C(=O)N[C@@H](C)c1ccc(F)cc1F)c1cc2ccccc2[nH]c1=O (stereo partly drawn) [compound 134],,,,7.99 µM,100.00 µM,100.00 µM,,
"Cc1cc([C@@H](C)NC(=O)Cc2c(C)c3c(C)c(F)ccc3[nH]c2=O)ncc1F (single isomer, unassigned) [compound 2076]",,,,2.56 µM,100.00 µM,46.49 µM,,
"Cc1c(CC(=O)N[C@@H](C)c2ccc(S(C)(=O)=O)cc2F)c(=O)[nH]c2ccnc(C#N)c12 (single isomer, unassigned) [compound 215]",100.00 µM,100.00 µM,100.00 µM,,,,,
"Cc1c(CC(=O)N[C@H](CO)c2ncc(C#N)cc2F)c(=O)[nH]c2ccnc(C#N)c12 (single isomer, unassigned) [compound 245]",0.93 µM,8.37 µM,9.46 µM,,,,,
C[C@@H](NC(=O)Cc1cc2c(C#N)nccc2[nH]c1=O)c1ccc(C#N)cn1 [compound 472],0.40 µM,4.05 µM,5.93 µM,,,,,
"Cc1nccc2[nH]c(=O)c(CC(=O)N[C@H](CO)c3ncc(F)cc3F)c(C)c12 (single isomer, unassigned) [compound 303]",40.83 µM,100.00 µM,100.00 µM,,,,,
"COc1nccc2[nH]c(=O)c(CC(=O)N[C@H](C)c3ncc(C#N)cc3F)c(C(F)(F)F)c12 (single isomer, unassigned) [compound 3009]",100.00 µM,0.14 µM,2.17 µM,,,,,
Cc1nccc2[nH]c(=O)c(CC(=O)N[C@@H](C)c3ccc(F)cc3F)c(C#N)c12 [compound 159],0.11 µM,1.17 µM,6.35 µM,,,,,
Cc1cc2[nH]c(=O)c(CC(=O)N[C@@H](C)c3ccc(F)cc3F)c(C)c2cn1 [compound 446],4.59 µM,100.00 µM,100.00 µM,,,,,
Cc1c(CC(=O)N[C@@H](C)c2ccc(C#N)cn2)c(=O)[nH]c2ccc(OC(F)(F)F)nc12 [compound 450],100.00 µM,100.00 µM,100.00 µM,,,,,
Cc1c(CC(=O)N[C@@H](C)c2cnc(C#N)nc2)c(=O)[nH]c2ccc(F)cc12 [compound 1101],,,,0.06 µM,0.17 µM,0.31 µM,,
C[C@H](NC(=O)Cc1cc2c(F)cc(F)cc2[nH]c1=O)c1ncc(C#N)cc1F [compound 1138],,,,0.04 µM,1.64 µM,1.22 µM,,
"C[C@@H](NC(=O)C(F)(F)c1cc2cc(F)ccc2[nH]c1=O)c1cccc(C#N)n1 (single isomer, unassigned) [compound 2581]",,,,100.00 µM,100.00 µM,100.00 µM,,
